Measured values published in patent US20250302912A1, “COMPOSITION INCLUDING PEPTIDE COMPOUND AND SURFACTANT” (CHUGAI SEIYAKU KABUSHIKI KAISHA, priority 2021, published 2025).
Converted amounts (≈) assume the structure as drawn. Bridge positions count the residues as written; N and C are the ends. Square brackets hold non-standard residues; d marks the D form. Peptide text beside a SMILES is read from it. * marks the point of attachment. Ala(4-thiazolyl) = N[C@@H](Cc1cscn1)C(=O)O; NMeNle(6-CHF2) = CN[C@@H](CCCCC(F)F)C(=O)O; Phe(3-Cl) = N[C@@H](Cc1cccc(Cl)c1)C(=O)O; NMehPhe = CN[C@@H](CCc1ccccc1)C(=O)O; NMeF = CN[C@@H](Cc1ccccc1)C(=O)O; NMeD = CN[C@@H](CC(=O)O)C(=O)O; NMeS = CN[C@@H](CO)C(=O)O; Pip = O=C(O)[C@@H]1CCCCN1; Nle = CCCC[C@H](N)C(=O)O; Pyrrolidide = C1CCN(*)C1; dNMeA = CN[C@H](C)C(=O)O; Propyl = CCC*

How the values were obtained:
claudin protein = settings: Drug Metab. Pharmacokinet., 26 (2): 162170 (2011); cited from earlier work
[1] = Evaluation of Caco-2 membrane permeability; settings: human, Caco-2, pH 6.5, Permeability coefficient (Caco-2 Papp), FaSSIF/HBSS buffer pH 6.5 apical
[2] = Evaluation of solubility in 50 mM phosphate buffer (PPB, pH 6.5); format: physicochemical; settings: 50 mM phosphate buffer pH 6.5, 37° C., 1 atm, 22 to 24 hours
Description: To an excess amount of lyophilized powder of the compound, 50 mM phosphate buffer (PPB: Phosphate buffer, pH 6.5) is added, and after shaking (37° C., 1 atm, 1800 rpm, for 22 to 24 hours), the mixture is filtered with a filter, and the compound concentration of the filtrate is measured by LC/MS/MS. Solubility (μg/mL) is calculated from the measured compound concentration.
Solubility (g/mL) was calculated from the measured compound concentration.

[3] = Without 5 mM lauroyl-L-carnitine

SMILES | Papp A→B at 180 min ([1]; With 5 mM lauroyl-L-carnitine) [×10⁻⁶ cm/s] | Papp A→B at 180 min [1, 3] [×10⁻⁶ cm/s] | solubility [2] [µg/mL] | Effect on expression of claudin protein / tight junction (claudin protein)
CCCCCCCCCCCC(=O)O[C@H](CC(=O)[O-])C[N+](C)(C)C [lauroyl-L-carnitine] | – | – | – | suppresses the expression of claudin protein and thus expands the tight junction
CC[C@H](C)[C@@H]1NC(=O)[C@H](CC(C)C)N(C)C(=O)CC(C(=O)N2CCCCC2)N(C)C(=O)[C@H](C2CCCC2)N(C)C(=O)C2(CCCC2)NC(=O)[C@@H]2CCCN2C(=O)[C@H](CCc2ccc(C(F)(F)F)c(Cl)c2)NC(=O)CN(C)C(=O)[C@H](CC2CCCCC2)N(C)C(=O)[C@@H]2CCN2C(=O)[C@H](C)N(C)C1=O (single isomer, unassigned) [Compound 8] | 0.154 | 0.042 | – | –
CC[C@H](C)[C@@H]1NC(=O)[C@H](CC(C)C)N(C)C(=O)CC(C(=O)N2CCOCC2)N(C)C(=O)[C@H](C2CCCC2)N(C)C(=O)C2(CCCC2)NC(=O)[C@@H]2CCCN2C(=O)[C@H](CCc2ccc(C(F)(F)F)c(Cl)c2)NC(=O)CN(C)C(=O)[C@H](CC2CCCCC2)N(C)C(=O)[C@@H]2CCN2C(=O)[C@H](C)N(C)C1=O (single isomer, unassigned) [Compound 2] | 0.265 | 0.0491 | – | –

Continued, in another order:

Papp A→B at 180 min ([1]; With 5 mM lauroyl-L-carnitine) [×10⁻⁶ cm/s] | Papp A→B at 180 min [1, 3] [×10⁻⁶ cm/s] | solubility [2] [µg/mL] | SMILES | Effect on expression of claudin protein / tight junction (claudin protein)
0.526 | < 0.0944 | – | CC[C@H](C)[C@@H]1NC(=O)[C@H](Cc2ccccc2)N(C)C(=O)CN(C)C(=O)C[C@@H](C(=O)N2CCCCC2)NC(=O)[C@H](CC(C)C)N(C)C(=O)[C@H](COC(C)(C)C)NC(=O)[C@H](CC(C)C)N(C)C(=O)[C@H](CCc2ccccc2)N(C)C(=O)CN(C)C(=O)[C@H]([C@@H](C)O)NC(=O)[C@H](CC(C)C)N(C)C1=O (stereo in doubt) [Compound 7] | –
0.0264 | 0.00372 | < 1.09 | CCCC[C@@H]1NC(=O)[C@@H]2CCCN2C(=O)[C@H](CCCC)NC(=O)[C@@H](C)N(C)C(=O)C[C@@H](C(=O)N2CCCC2)N(C)C(=O)[C@@H]2CCCN2C(=O)[C@H]([C@@H](C)CC)NC(=O)[C@@H]2CCCCN2C(=O)[C@H](Cc2cccc(Cl)c2)NC(=O)[C@H](COCCC)N(C)C(=O)[C@H](Cc2ccccc2)N(C)C1=O [Compound 5] ([dNMeA][Nle]P[Nle][NMeF][NMeS](Propyl)[Phe(3-Cl)][Pip]IP[NMeD]-Pyrrolidide; lactam N-11) | –
0.0214 | 0.00949 | – | CC[C@H](C)[C@@H]1NC(=O)C(CC(C)C)N(C)C(=O)CC(C(=O)N(C)C)N(C)C(=O)[C@H](C2CCCC2)N(C)C(=O)C(C)NC(=O)C(C)N(C)C(=O)[C@H](CCc2ccc(C(F)(F)F)c(Cl)c2)NC(=O)CN(C)C(=O)[C@H](CC2CCCCC2)N(C)C(=O)[C@@H]2CCN2C(=O)[C@H](C)N(C)C1=O (single isomer, unassigned) [Compound 9] | –
0.012 | < 0.0107 | 103 (≈ 71.2 µM) | CC[C@H](C)[C@@H]1NC(=O)[C@H](Cc2ccccc2)N(C)C(=O)[C@H](Cc2cscn2)NC(=O)[C@@H](C)N(C)C(=O)C[C@@H](C(=O)N2CCCC2)NC(=O)[C@@H]2CCCN2C(=O)[C@H](CCCCC(F)F)N(C)C(=O)CNC(=O)[C@H](Cc2ccccc2)N(C)C(=O)[C@@H]2CCCN2C(=O)[C@H](CCc2ccccc2)N(C)C1=O [Compound 4] ([dNMeA][Ala(4-thiazolyl)][NMeF]I[NMehPhe]P[NMeF]G[NMeNle(6-CHF2)]PD-Pyrrolidide; lactam N-11) | –
– | < 0.00976 | – | CC[C@H](C)[C@@H]1NC(=O)[C@H](CC(C)C)N(C)C(=O)CC(C(=O)N2CCOCC2)N(C)C(=O)[C@H](C2CCCC2)N(C)C(=O)C2(CCCC2)NC(=O)[C@@H]2CCCN2C(=O)[C@H](CCc2ccc(C(F)(F)F)c(Cl)c2)NC(=O)CN(C)C(=O)[C@H](C2CCCC2)N(C)C(=O)[C@@H]2CCN2C(=O)[C@H](C)NC1=O (single isomer, unassigned) [Compound 10] | –
